Data: patent publication US20240392315A1, “COMPOSITION FOR CELL ADDITION” (priority 2021, published 2024)
Like-named read-outs stand apart in the source and are kept apart here.

Key:
[1] = system: HEK293 cells; format: cell-based, human
[2] = system: HEK293 cells

Work on OCC(O)CO [Glycerol, glycerol] yielded a genome titer ([1]; test (3), additive 0.73 v/v %, AAV2 in cells, 3 days after transfection, control 2.26E+07) of 4.50E+07 vg/μL, a genome integrity ([1]; test (3), additive 0.73 v/v %, AAV2 in cells, control 51.9) of 58.9% and a genome titer ([1]; test (4), additive 0.38 v/v %, AAV2 in cells, control 2.40E+07) of 2.78E+07 vg/μL. For the same molecule, the genome integrity ([1]; test (4), additive 0.38 v/v %, AAV2 in cells, control 53.4) was 55.2%, the genome titer ([1]; test (4), additive 1.15 v/v %, AAV2 in cells, control 2.40E+07) was 3.66E+07 vg/μL and the genome integrity ([1]; test (4), additive 1.15 v/v %, AAV2 in cells, control 53.4) was 58.5%.
CC(C)O [Isopropanol, isopropanol] gave a genome titer ([1]; test (4), additive 0.61 v/v %, AAV2 in cells, control 2.40E+07) of 2.26E+07 vg/μL and a genome integrity ([1]; test (4), additive 0.61 v/v %, AAV2 in cells, control 53.4) of 58.5%.
C[S+](C)[O-] [DMSO, dimethyl sulfoxide] was tested, and the “improving integrity of the genome in produced AAV2 and genome titer (productivity)” value ([1]; DMSO, Table 8) was “effective”, the genome titer ([1]; test (5), additive 0.57 v/v %, AAV2 produced in cells, control 2.40E+07) was 3.35E+07 vg/μL and the genome integrity ([1]; test (5), additive 0.57 v/v %, AAV2 produced in cells, control 53.4) was 59.3%. For the same molecule, the “TFday 3 VCD” value ([2]; test (5), additive 0.57 v/v %, day 3 after transfection, control 4.17E+06) was 4.58E+06 cells/mL, the “TF day 3 Viability” value ([2]; test (5), additive 0.57 v/v %, day 3 after transfection, control 78.5) was 81.5% and the “cell growth and substance production” value ([2]; when the concentration is low) was “improving”.
